Measurements as given in patent US20200330467A1, “METHOD AND PHARMACEUTICAL COMPOSITIONS FOR THE TREATMENT OF MULTIPLE MYELOMA” (priority 2016, published 2020).

How the values were obtained:
non-myeloma cells = type: cell-based, human; details: 1, 2.5 and 5 μM, day 4, patient mononuclear cell cultures, n=8
Method: […]. At day 4 of culture, the viability and total cell counts were assessed and the percentage of CD138 viable plasma cells was determined by flow cytometry. Results are median values of the numbers of myeloma cells in the culture wells. The values were compared with a Wilcoxon test for pairs.
[…]. MMCs cytotoxicity was evaluated using anti-CD138-PE mAb (Immunotech, Marseille, France) as described^18,35. Results were analyzed using GraphPad Prism (http://www.graphpad.com/scientific-software/prism/).

U2OS cells = experiment: Immunoblot analysis of DNA damage and checkpoint markers in U2OS cells treated with UNC0379; type: cell-based, human
Method: For immunoblot analysis, cells washed with phosphate-buffered saline (PBS) were lysed in Laemmli buffer. After measuring protein quantity by Bradford, equal amounts of protein were resolved by SDS-PAGE, transferred to a nitrocellulose membrane and probed with one of the following antibodies: anti-SETD8 (1:1000, Cell Signaling Technology), anti-H4K20me1 (1:1000 cell signaling) anti-phospho-H2A.X-Ser139 (1:1000, millipore). Membranes were then incubated with the appropriate horseradish peroxidase (HRP)-conjugated secondary antibodies. The immunoreactive bands were detected by chemiluminescence.

MM cells = experiment: DNA repair foci (53BP1) immunofluorescence, combination with melphalan; details: sub-lethal dose of UNC0379 combined with melphalan, P<0.001
Excerpt: At least 300 cells were counted for each treatment group.
After deposition on slides using a Cytospin centrifuge, cells were fixed with 4% PFA, permeabilized with 0.5% Triton in PBS and saturated with 5% bovine milk in PBS. […] Slides were washed and mounted with Vectashield and 1% DAPI. Images and fluorescence were captured with a ZEISS Axio Imager Z2 microscope (X63 objective) (company, town state), analyzed with Metafer (version3.6, company, town state) and ImageJ softwares. The number of 53BP1 and γH2AX foci was counted in at least 300 nuclei.

XG1 HMCL = experiment: Apoptosis induction, Annexin V APC staining by flow cytometry, XG1; type: cell-based, human; details: XG1, UNC0379 5 mM (so in the source)
Method: (§1) Apoptosis induction was analyzed with Annexin V APC staining by flow cytometry. The shown data is one representative experiment and mean values±SD of 3 separate experiments. Statistical analysis was done with a paired t-test.

XG7 HMCL = experiment: Apoptosis induction, Annexin V APC staining by flow cytometry, XG7; type: cell-based, human; details: XG7, UNC0379 5 mM (so in the source)
Method: as §1

SMILES: COc1cc2nc(N3CCCC3)nc(NCCCCCN3CCCC3)c2cc1OC [UNC0379]
- toxicity on the non-myeloma cells (non-myeloma cells): without significant toxicity
- P53 level (U2OS cells): stabilization of P53
- phosphorylation of CHK1 (DNA damage checkpoint activation) (U2OS cells): phosphorylation of CHK1
- γH2A.X (marker of DNA damage) (U2OS cells): increase in γH2A.X
- accumulation of DNA double strand breaks (53BP1 foci) (MM cells): significantly synergizes with melphalan
- annexin-V positive cells (XG1 HMCL): 87%
- annexin-V positive cells (XG7 HMCL): 63%
